Results taken from US8716350B2, “Compositions and methods for the treatment of somatosensory disorders” (Algynomics Inc., priority 2010, dated 2014).
Entries after “also recorded” stand apart in the source; their conditions may differ. Where two headings read alike, the source gives them in different places.

Experiments:
ADRB3 = target: T1, ADRB3 (Homo sapiens, UniProt P13945); format: cell-based; conditions: cells transfected with ADRB3
T1 construct: expressed in transfected cells; host or cells: HEK-293 co-expressing GloSensor-22F

ADRB1 = ADRB1 (Homo sapiens, UniProt P08588); conditions: cells transfected with ADRB1
hind paw formalin test = assay: Hind paw formalin test (2.5% formaldehyde), Example 2; format: in vivo, mice; conditions: for late phase, C-fiber mediated responses (paw licking): late/tonic phase, last 50 minutes
formalin-induced pain = assay: Formalin test (5% formalin, intraplantar), Example 6; format: in vivo, CD-1 (ICR:Crl) mice; conditions: 95% confidence interval in parentheses; for ED50: Mus musculus
thermal thresholds = assay: Radiant heat paw-withdrawal test (acute nociception); format: in vivo, CD-1 (ICR:Crl) mice; conditions: high dose; 20 min post-injection
Protocol: All behavioral experiments were performed on naive, adult (6-12 weeks of age) CD-1 (ICR:Crl) mice of both sexes that were bred in-house from breeders obtained from Charles River (Boucherville, QC). All mice were housed with their same-sex littermates (two to four animals per cage) in standard shoebox cages, maintained in a temperature-controlled (20±1° C.) environment (14/10 h light/dark cycle), and fed (Harlan Teklad 8604) and watered ad libitum. Mice were placed on glass floor within small Plexiglas cubicles as described above, and a focused high-intensity projector lamp beam was directed from below onto the mid-plantar surface of the hind paw (Hargreaves et al., 1988). The commercial device (IITC Model 336) was set to 20% active intensity. Latency to withdraw from the stimulus was measured to the nearest 0.1 s. Baseline measurements consisted of testing both hind paws twice on three separate occasions separated by at least 30 min. Following drug administration both hind paws were only tested once at the indicated time point.

mechanical thresholds = assay: Von Frey test (acute nociception); format: in vivo, CD-1 (ICR:Crl) mice; conditions: 10, 30, 60 mg/kg
Protocol: (§1) All behavioral experiments were performed on naive, adult (6-12 weeks of age) CD-1 (ICR:Crl) mice of both sexes that were bred in-house from breeders obtained from Charles River (Boucherville, QC). All mice were housed with their same-sex littermates (two to four animals per cage) in standard shoebox cages, maintained in a temperature-controlled (20±1° C.) environment (14/10 h light/dark cycle), and fed (Harlan Teklad 8604) and watered ad libitum. The up-down method of Dixon (1965) was used. Mice were placed on a perforated metal floor (with 5-mm diameter holes placed 7 mm apart) within small Plexiglas cubicles (9×5×5 cm high), and a set of eight calibrated von Frey fibers (Stoelting Touch Test Sensory Evaluator Kit #2 to #9; ranging from ≈0.015 g to ≈1.3 g of force) were applied to the plantar surface of the hind paw until the fibers bowed and then held for 3 s. The threshold force required to elicit withdrawal of the paw (median 50% withdrawal) was determined twice on each hind paw (and averaged) for all baseline measurements (except for the spared nerve injury experiments), with sequential measurements separated by at least 20 min. Following drug administration, one measurement per hind paw was taken at the indicated time point.

[1] = tested on: λ-carrageenan thermal and mechanical allodynia; assay: Carrageenan hyperalgesia (radiant heat and von Frey); format: in vivo, CD-1 (ICR:Crl) mice
Protocol: as §1, with “point. Mice were placed on glass floor within small Plexiglas cubicles as described above, and a focused high-intensity projector lamp beam was directed from below onto the mid-plantar surface of the hind paw (Hargreaves et al., 1988). The commercial device (IITC Model 336) was set to 20% active intensity. Latency to withdraw from the stimulus was measured to the nearest 0.1 s. Baseline measurements consisted of testing both hind paws twice on three separate occasions separated by at least 30 min. Following drug administration both hind paws were only tested once at the indicated time point. λ-Carrageenan (2%; 20 mg/ml; Sigma) was suspended by sonication in saline, and injected subcutaneously in a volume of 20 μl into the left plantar hindpaw using a 100 μL1 microsyringe with a 30-gauge needle. Mice were tested for thermal and mechanical sensitivity of both hind paws using the radiant heat paw withdrawal and von Frey tests before and 3 h post carrageenan injection. All drugs were injected immediately following the test for carrageenan hyperalgesia at the 3 h time point, and post-drug measurements were taken at 20, 40 and 60 min.” for “point.”

[2] = tested on: mechanical allodynia evoked by spared nerve injury; assay: Spared nerve injury, von Frey test; format: in vivo, CD-1 (ICR:Crl) mice; conditions: 60 mg/kg; 7 days postoperatively
Protocol: as §1, with “point. […]” for “point.”

rotarod performance = conditions: for ataxia on the rotarod test (in words): 60 mg/kg, 20-80 min after injection; for ED50 for maximal ataxia: 60 min following drug administration, interval in parentheses
in vivo = conditions: mouse
ADRB2 = target: T2, ADRB2 (Homo sapiens, UniProt P07550); assay: GloSensor cAMP-sensitive luciferase reporter assay, HEK-293 cells transfected with ADRB2; format: cell-based
T2 construct: expressed in transfected cells; host or cells: HEK-293 co-expressing GloSensor-22F

[3] = tested on: cells transfected with only Sport6 vector without inserts; assay: GloSensor cAMP assay, cells transfected with only Sport6 vector without inserts; format: cell-based
[4] = 60 mg/kg, up to 60 min post-injection
[5] = 0-10 min post-injection of formalin
[6] = 10-60 min post-injection of formalin
[7] = S-ALG 517 60, 90 mg/kg, R-ALG 517 60, 90, 120 mg/kg, propranolol 10, 30, 60 mg/kg

Sequence of ADRB1 (P08588 whole entry, species assumed): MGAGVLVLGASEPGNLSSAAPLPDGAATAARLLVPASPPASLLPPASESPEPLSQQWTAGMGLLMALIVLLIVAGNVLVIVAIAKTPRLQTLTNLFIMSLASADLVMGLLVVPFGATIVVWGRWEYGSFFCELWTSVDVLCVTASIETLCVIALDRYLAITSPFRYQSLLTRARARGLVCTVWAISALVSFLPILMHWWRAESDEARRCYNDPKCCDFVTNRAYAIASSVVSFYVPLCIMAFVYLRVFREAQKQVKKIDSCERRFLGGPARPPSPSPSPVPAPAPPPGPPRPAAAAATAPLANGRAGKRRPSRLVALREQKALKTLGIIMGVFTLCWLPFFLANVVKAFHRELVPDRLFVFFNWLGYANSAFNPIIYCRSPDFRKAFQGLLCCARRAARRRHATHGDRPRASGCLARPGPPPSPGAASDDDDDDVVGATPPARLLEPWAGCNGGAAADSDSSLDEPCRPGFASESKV
T1 sequence (P13945 whole entry, species assumed): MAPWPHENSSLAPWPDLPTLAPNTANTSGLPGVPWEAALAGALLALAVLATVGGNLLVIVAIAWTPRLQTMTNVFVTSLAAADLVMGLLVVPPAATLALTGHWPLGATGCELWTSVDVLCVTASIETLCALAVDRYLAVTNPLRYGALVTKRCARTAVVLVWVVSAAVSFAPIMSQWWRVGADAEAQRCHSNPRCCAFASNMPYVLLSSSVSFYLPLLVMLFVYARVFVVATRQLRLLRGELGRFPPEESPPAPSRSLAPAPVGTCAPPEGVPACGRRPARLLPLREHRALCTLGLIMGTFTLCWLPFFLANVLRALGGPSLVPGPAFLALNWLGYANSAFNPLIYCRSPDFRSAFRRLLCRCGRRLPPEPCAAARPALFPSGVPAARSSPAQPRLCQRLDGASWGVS

**Q.** For `Cc1ccc(OCC(O)C(C)NC(C)C)c2c1CCC2` (centres unmarked) [ICI118,551, 3-(isopropylamino)-1-[(7-methyl-4-indanyl)oxy]butan-2-ol], which “blockade of morphine stimulation of cAMP” value (ADRB3; antagonist 300 nM) is on record?
**A.** Its value is “no blockade”.

**Q.** And the “blockade of morphine stimulation of cAMP” value (ADRB1; antagonist 300 nM)?
**A.** The value was “partial blockade”.

**Q.** For `Cc1ccc(Cl)c(OC[C@H](O)CNC(C)(C)C)c1` [R-ALG 517, R-tert-butyl[3-(2-chloro-5-methylphenoxy)-2-hydroxypropyl]amine], which “late phase, C-fiber mediated responses (paw licking)” value (hind paw formalin test; 10 mg/kg) is on record?
**A.** Its value is “reduced”.

**Q.** What about the “early, A-delta mediated phase responses (paw licking)” value (hind paw formalin test; early/acute phase, first 5 min) of the same molecule?
**A.** The value was “not altered”.

**Q.** And the ED50 (formalin-induced pain; 0-10 min post-injection of formalin, read-out: half-maximal analgesic dose (ED50), Early Phase)?
**A.** Its ED50 is 46 mg/kg.

**Q.** And the ED50 (formalin-induced pain; 10-60 min post-injection of formalin, read-out: half-maximal analgesic dose (ED50), Late Phase)?
**A.** Its ED50 is 26.6 mg/kg.

**Q.** What about the “thermal thresholds on the radiant heat test” value (thermal thresholds) of the same molecule?
**A.** Its value is “increased thermal thresholds”.

**Q.** What about the “mechanical thresholds on the von Frey test” value (mechanical thresholds) of the same molecule?
**A.** Its value is “no effect”.

**Q.** And the “reversal of thermal hyperalgesia” value ([1]; 10 mg/kg)?
**A.** Its value is “transient reversal”.

**Q.** And the “reversal of mechanical hyperalgesia” value ([1]; 30 mg/kg)?
**A.** The value was “transient reversal”.

**Q.** And the “reversal of thermal hyperalgesia” value ([1]; 30 mg/kg)?
**A.** Its value is “transient reversal”.

**Q.** What about the “reversal of mechanical hyperalgesia” value [1, 4] of the same molecule?
**A.** Its value is “complete and sustained”.

**Q.** What about the “reversal of thermal hyperalgesia” value [1, 4] of the same molecule?
**A.** Its value is “complete and sustained”.

**Q.** And the “reversal of mechanical allodynia evoked by spared nerve injury” value [2]?
**A.** The value was “reversed”.

**Q.** What about the “ataxia / sedation on rotarod over the doses tested (in words)” value (rotarod performance; mouse, in vivo) of the same molecule?
**A.** Its value is “does not produce significant ataxia”.

**Q.** And the ED50 at 60 min (in vivo)?
**A.** Its ED50 at 60 min is 166 mg/kg.

**Q.** For `CC(C)NC[C@@H](O)COc1cccc2ccccc12` [R-propranolol], which “half-maximal analgesic dose (ED50), Early Phase” value (formalin-induced pain; [5]) is on record?
**A.** Its value is “not calculable”.

**Q.** What about the “half-maximal analgesic dose (ED50), Late Phase” value (formalin-induced pain; [6]) of the same molecule?
**A.** The value was “not calculable”.

**Q.** With `Cc1ccc(Cl)c(OC[C@@H](O)CNC(C)(C)C)c1` [S-ALG 517, S-tert-butyl[3-(2-chloro-5-methylphenoxy)-2-hydroxypropyl]amine] as the molecule, how does the “responses to the hind paw formalin test” value (hind paw formalin test; 3 mg/kg) read?
**A.** The value was “without effect”.

**Q.** And the “responses to the hind paw formalin test” value (hind paw formalin test; 10 mg/kg)?
**A.** The value was “without effect”.

**Q.** What about the “half-maximal analgesic dose (ED50), Early Phase” value (formalin-induced pain; [5]) of the same molecule?
**A.** Its value is “not calculable”.

**Q.** What about the “half-maximal analgesic dose (ED50), Late Phase” value (formalin-induced pain; [6]) of the same molecule?
**A.** Its value is “not calculable”.

**Q.** And the “ataxia on the rotarod test (in words)” value (rotarod performance)?
**A.** The value was “only slight and possibly not even significant ataxia”.

**Q.** And the “ED50 for maximal ataxia” value (rotarod performance)?
**A.** Its value is 74 mg/kg.

**Q.** What about the “ataxia / sedation on rotarod over the doses tested (in words)” value (rotarod performance; [7]) of the same molecule?
**A.** The value was “produce sedation at much lower doses”.

**Q.** For `CC(C)NCC(O)COc1cccc2ccccc12` (centres unmarked) [S-Propranolol], which “half-maximal analgesic dose (ED50), Early Phase” value (formalin-induced pain; [5]) is on record?
**A.** Its value is 35 mg/kg.

**Q.** What about the “half-maximal analgesic dose (ED50), Late Phase” value (formalin-induced pain; [6]) of the same molecule?
**A.** Its value is 25.46 mg/kg.

**Q.** What does the source list for `CN1CC[C@]23c4c5ccc(O)c4O[C@H]2[C@@H](O)C=C[C@H]3[C@H]1C5` [morphine]?
**A.** ADRB2 agonist potency in comparison with other agonists (in words) (ADRB2): most potent ADRB2 agonist; agonist potency at ADRB2 as compared to ADRB1 and ADRB3 (ADRB2): 500-1000 times; agonist stimulation of cAMP production (ADRB2): stimulated cAMP production; also recorded: dose-dependent increases; intrinsic activity at ADRB2 as compared to ADRB1 and ADRB3 (ADRB2): about 10 times; intracellular cAMP accumulation (ADRB3): dose-dependent increases; cAMP response [3]: did not evoke responses; intracellular cAMP accumulation (ADRB1): dose-dependent increases

**Q.** What does the source list for `CC(C)NCC(O)COc1cccc2ccccc12` (centres unmarked) [propranolol]?
**A.** late phase, C-fiber mediated responses (paw licking) (hind paw formalin test; 10 mg/kg): reduced; half-maximal analgesic dose (ED50), Early Phase (formalin-induced pain; 0-10 min post-injection of formalin, listed as racemic propranolol): 33 mg/kg; half-maximal analgesic dose (ED50), Late Phase (formalin-induced pain; 10-60 min post-injection of formalin, listed as racemic propranolol): 21.3 mg/kg; ataxia on the rotarod test (in words) (rotarod performance): fall off the rotarod very rapidly; ED50 for maximal ataxia (rotarod performance): 4.76 mg/kg; ataxia / sedation on rotarod over the doses tested (in words) (rotarod performance; [7]): produce sedation at much lower doses

**Q.** For dynorphin A, which “agonist stimulation of cAMP production” value (ADRB2) is on record?
**A.** Its value is “showed agonistic properties”.
